Measurements published in patent US9333211B2, “Phosphaplatin mediated modulation of pigment epithelial derived factor and uses thereof” (UNIVERSITY OF HOUSTON SYSTEM, priority 2013, dated 2016).
Entries after “also recorded” stand apart in the source; their conditions may differ.

Experiments:
[1] = tested on: ARPE19 cells; experiment: CellTiter-Glo Luminescent Cell Viability Assay; format: cell-based, human; conditions: 100 μM, 24 hours of treatment
Description: Promega's CellTiter-Glo® Luminescent Cell Viability Assay was used to determine the number of viable cells in a culture by quantification of ATP (Promega. Madison, Wis.). Briefly, ARPE19 cells, a normal human retinal pigment epithelial cell line, were seeded in a 96 well plate with 10,000-30,000 cells per well and were allowed to attach for 24 hours. Thereafter, the cells were treated with RRD2 or RRD4 at different concentrations ranging from 1 to 100 μM for 24 hours. The detection reagent was prepared per manufactures protocol and equal volume of CellTiter-Glo® reagent was added to each well of cell culture and luminescence read with integration time set for 0.25 to 1 second. The Glo titer Viability Assay has a linear range is from 0 to 50,000 cells per well. Each concentration was done in triplicate.

[2] = tested on: PEDF protein; experiment: PEDF protein expression by immunofluorescence in A2780 cells; format: cell-based, human; conditions: for PEDF protein expression by immunofluorescence: 12 hour treatment; for PEDF overexpression, time dependence: 3 to 24 hr, 20 and 25 μM
Description: A 6-well plate containing pretreated cover slips was seeded with 500-1000 cells of A2780 human ovarian cancer cell lines in 2.5 ml of RPMI 1640 media (Lonza Walkersville, Frederick, Md.) containing 2.0 mM L-glutamine and supplemented with 10% heat inactivated fetal bovine serum, FBS (Hyclone, Logan, Utah), and 0.25 units/mL recombinant human insulin (Sigma Aldrich, St. Louis, Mo.), 100 U/ml penicillin-streptomycin (Lonza Walkersville, Frederick, Md.). Those cells reaching to 80% confluency were treated with phosphaplatin compounds, RRD2 and RRD4 at various time intervals (3, 6, 12, or 24 hours). Each of the cover slip was washed with PBS three times, and the cells were fixed with freshly prepared 4% paraformaldehyde at room temperature for 20 minutes. The fixed cells were then washed with PBS for three times. These cells were permeablized and blocked with 7.5% bovine serum albumin, BSA/PBS/0.01% triton-X100 at 37° C. for 60 minutes followed by washing the cells with PBS twice. The cover slips were treated with a 1:300 dilution of Pigment epithelium-derived factor (PEDF; also known as serpin F1, SERPINF1) mouse primary antibody (Cell Signalling Technology Inc., Danvers, Mass.) in 7.5% BSA/PBS/0.01% triton for 12-15 hours 37° C. and washed with PBS for three times. The coverslips were incubated with secondary Alexa Fluor 488-conjugated anti-mouse IgG (FITC-Green) (Invitrogen, Carlsbad, Calif.) at a 1:5000 dilution in 7.5% BSA/PBS/0.01% triton-X100 for 1 hour at 37° C. in the dark. The cover-slips were then washed with PBS for another three times. In addition, some treatments were stained for beta-Actin and was stained with Phalloidin (Rhodamine) (Red) (Invitrogen, Carlsbad, Calif.) (7 ul/ml) in 7.5% BSA/PBS/0.01% triton-X100 for 1 hour at 37° C. in the dark. The moist cover-slips were then mounted onto a microscope slide with Ultracruz mounting media containing DAPI (4′,6-diamidino-2-phenylindole) (Blue) (Santa Cruz Biotechnology, Santa Cruz, Calif.) (for identifying the nucleus) and images were then collected on an Olympus FV-1000 inverted stage confocal microscope using a Plan Apo N 60×1.42NA oil immersion objective and processed by FluoView software.

[3] = tested on: PEDF gene; experiment: PEDF gene expression, Human angiogenesis PCR array (real-time PCR); format: cell-based; conditions: A2780 cells, 24 hr, ΔΔCT vs β-actin
Description: Human ovarian cancer cell lines, A2780 (Fox Chase) were cultured in 100 mm^3 plates in monolayer by using RPMI medium 1640 supplemented with 10% FBS, 2 mM glutamine, 0.25 units/mL insulin and penicillin/streptomycin (100 units/ml) in a 37° C. incubator continuously gassed with 5% CO2. The cells were treated with either RRD2 and RRD4, 5 μM and 13 μM, respectively, for 24 hrs in triplicate. The cells were collected by 0.025% trypsin-edta and were centrifuged. The pellet of cells was then resuspended in PBS and washed three times with PBS and pelleted. The total RNA isolated using the Qiagen RNeasy Mini kit (Qiagen Inc.) according to the handbook protocol. The quantity of RNA was measured spectrophotometrically at Absorbance 260 nm (1Abs260=40 ug/ml) and the quality of RNA A260:A280 ratio was measured between 1.8 to 2.0. For each experiment, 0.9 μg of total RNA was converted to cDNA using the RT^2 first strand kit (SABiosciences, Qiagen Inc.) and analyzed on the SABiosciences (Qiagen Inc.) PAHS-024C Human angiogenesis array with an Applied Biosciences 7900HT real-time PCR machine according to manufactures protocol. The threshold cycle (Ct) and baseline for each well was determined by instruments software and the resulting Ct values were analyzed using SABiosciences PCR Array Data Analysis Web-based Software (http://sabiosciences.com/pcrarraydataanalysis.php). β-Actin and/or GADPH were used as housekeeping gene for determining fold regulation.

[4] = tested on: PEDF protein; experiment: PEDF protein expression by Western blot in A2780 cells; format: cell-based, human; conditions: 3 hrs, 6 hrs and 12 hrs treatment
Description: Treated human ovarian cancer cells (approximately 1×10^6 cells in 60 mm^3 plates at 80-90% confluence) line with 20 μM RRD2 and 25 μM RRD4 for 3, 6 and 12 hrs was washed with PBS for three times. Total protein was extracted by treating the washed cells directly with 200 μl of RIPA (Sigma, St. Louis, Mo.) or MPER (Pierce, USA). Protein extract samples (50 μg) were separated by 12% SDS-PAGE and blotted onto polyvinylidene difluoride (PVDF) membranes. The blots were washed with TBST [10 mM Tris-HCl (pH 7.6), 150 mM NaCl, 0.1% Tween-20], blocked with 5% skim milk and 1% BSA overnight at 4 C, and incubated with the mouse anit-PEDF (Santa Cruz Biotechnology, USA) primary antibody at 1:500 dilutions in TBST with 5% skim milk and 1% BSA overnight at 4° C. The membrane was then washed TBST, and the primary antibodies were detected with secondary antibody goat anti-mouse IgG conjugated to horseradish peroxidase at 1:2500 dilution for 1.5 hours at room temperature. The blots were developed with enhanced chemiluminescence (ECL) (Pierce, USA) and exposed to X-ray film.

[5] = tested on: HUVEC tube formation; experiment: HUVEC tubulogenesis assay on Matrigel; format: cell-based, human; conditions: for neovascularization (tube formation) in HUVEC: after 30 min of treatment; for tube formation after treatment: HUVEC on Matrigel, 30 min treatment period
Description: Endothelial cell tubulogenesis assay was performed seeding 20,000 cells of HUVECs in 96-well plate that was pre-coated with 0.1% gelatin and 40 ul of Matrigel and treated with increasing concentration of phosphaplatin compounds, RRD2 and RRD4 in medium 199 (Lonza Walkersville, Frederick, Md.) supplemented with 20% heat-inactivated FBS (Hyclone, Logan, Utah), 100 μg/ml heparin (Sigma Aldrich, St. Louis, Mo.), 100 U/ml penicillin-streptomycin (Lonza Walkersville, Frederick, Md.) and endothelial mitogen (Biomedical Technologies, Stoughton, Mass.). In brief, Matrigel was defrosted overnight at 4° C. and the 0.1% gelatin coated 96 well plate was chilled and 40 μl of Matrigel was coated into each well. The plate was then incubated at 37° C. and 5% CO2 for 1 hour. The 96-well plate was seeded with 2×10^4 cells of HUVECs. After a 24 hour period of cell attachment each well was treated with the increasing concentration of Pt compounds overnight (8-10 hours) at 37° C. and 5% CO2. The capillary/tube formation structures formed were then recorded by an inverted microscope and quantified. Cells were counted in total visual area of 1.575 mm.
To further investigate the anti-angiogenetic behavior of RRD2 and RRD4 on endothelial cell tube formation, we treated HUVECs with different concentration of RRD2 and RRD4 (compounds A and D in FIG. 2) onto Matrigel. After 30 min of incubation with tube-like structures were monitored with an inverted microscope at 40× magnification.

[6] = tested on: PEDF gene; experiment: Individual PEDF gene expression, two step qRT-PCR; format: cell-based, human; conditions: A2780 cells, Single gene expression, endogenous control GADPH
Description: Individual Gene expression for PEDF was assessed by two step qRT-PCR assay. First, RNA isolation and purification was done as described above. A total of 2 μg total RNA was used to reverse-transcribe the template into single-stranded cDNA using RT^2 first strand kit (SABiosciences, Qiagen Inc.). In the second step, the synthesized cDNA was subjected to qRT-PCR RT^2 Primer Set (PEDF) used with SYBR Green real-time PCR master mix detection and endogenous control β-actin and/or GADPH (Applied Biosystems, Foster City, Calif.). All PCR reactions involving cDNA samples from treated and untreated cells were run in triplicate. Quantitative real-time PCR reactions were carried out on the StepOne PCR machine, 48 well system (Applied Biosystems, Foster City, Calif.) according to manufactures protocol. Results were generated using the StepOne software v2.1. The 2^−ΔΔCt method was used to present the relative differences in the mRNA expression levels.

SMILES	effect on viability of ARPE19 retinal cells [1]	PEDF protein expression by immunofluorescence ([2]; A2780, 20 μM)	PEDF overexpression, time dependence ([2]; human ovarian cells)	treatment time of maximum PEDF protein expression ([2]; immune-fluorescence experiments, human ovarian cells)	Fold change expression of PEDF ([3]; 5 uM)	Fold change expression of PEDF ([3]; 20 uM)	PEDF protein expression by Western Blotting ([4]; A2780, 20 μM)	inhibition of HUVEC tube formation on Matrigel ([5]; 0.5 μM, 30 min incubation)	neovascularization (tube formation) in HUVEC ([5]; 1 μM)	tube formation after treatment [5]	Fold change expression of PEDF ([6]; 25 uM, 3 hr)	Fold change expression of PEDF ([6]; 50 uM, 24 hr)	PEDF protein expression by immunofluorescence ([2]; A2780, 25 μM)	Fold change expression of PEDF ([3]; 13 uM)	PEDF protein expression by Western Blotting ([4]; A2780, 25 μM)	neovascularization (tube formation) in HUVEC ([5]; 10 μM)
NC1CCCCC1N.O=P1(O)[O][Pt][O]P(=O)(O)O1 [RRD2, R,R-trans-1,2-cyclohexane-diamine (dihydrogen pyrophospahto)platinum(II)]	no effect	overexpression; also recorded: overexpressed or upregulated	time dependent overexpression	12 h	2.64 fold	5.79 fold	overexpression; also recorded: upregulated	more than 85%	inhibition	No tube formation was evident						
NC1CCCCC1N.O=P1(O)OP(=O)(O)[O][Pt]([OH])([OH])[O]1 [RRD4, R,R-trans-1,2-cyclohexane-diamine-trans-dihydroxo(dihydrogenpyrophospahto) platinum(IV)]	no effect		time dependent overexpression							No tube formation was evident	2.1 fold	4.1 fold	overexpression; also recorded: overexpressed or upregulated	2.05 fold	overexpression; also recorded: upregulated	inhibition
